Measured values as given in article PMC5473904, “Epigenetic and antitumor effects of platinum(IV)-octanoato conjugates” (Scientific Reports, 2017).

Tested on: HDAC enzymes in HCT-116 cells
Assay: HDAC fluorimetric cellular activity assay
Assay type: cell-based, human
Details: 1 µM
Experimental: These epigenetic processes consist in downregulation of HDACs and yet other biochemical processes triggered by VPA released in cells by the reduction of the Pt(IV) prodrug. Moreover, it has also been shown[15] that non-branched MCFAs may act as HDAC inhibitors. […] HDAC activity was analyzed in HCT-116 cells and confirmed by an independent set of experiments on A2780 cells (data not shown) by using a commercial HDAC fluorimetric cellular activity kit as described in the section Materials and methods.
Figure 3 Activity of HDAC enzymes in HCT-116 cells treated with the compounds tested in the present work; their concentration was 1 µM except the concentration of free OA, which was 1 mM. […] The data represent a mean from three independent experiments, each performed in quadruplicate. The error bars are the SDs.
The activity of HDAC enzymes was analyzed in HCT-116 cells treated with compounds tested in the present work (1 µM). […] The activity of HDAC was analyzed using the HDAC fluorimetric cellular activity assay kit (Enzo Life Sciences; Farmingdale, NY) in the whole cells according to manufacturer’s instructions. […] The plates were scanned on a fluorescence reader Infinite 200 (TECAN) (360 nm excitation, 460 nm emission).

SMILES: CC(=O)[O][Pt]([NH2])([NH2])([Cl])([Cl])[O]C(C)=O [Pt(IV)diAc, cis, cis, trans-[Pt(IV)(NH3)2Cl2(Ac)2]]
- Efficiency to inhibit HDAC activity: very small
